Test results: US20110160303A1, “N-ALKYLCARBONYL-AMINO ACID ESTER AND N-ALKYLCARBONYL-AMINO LACTONE COMPOUNDS AND THEIR USE” (Edward Tak WEI, priority 2005, published 2011)

Tests used:
oral cavity = assay: Oral cavity test, substance placed on dorsal surface of the tongue; assay type: in vivo, human
Procedure: The subject is instructed to close and hold the substance in the mouth for at least 10 seconds and not to swallow. The description of sensations is then recorded at 5 minute intervals.
The compounds of Formula (1) and (2) are white crystalline solids at room temperatures. These compounds were tested as such, or mixed 1:1 with powdered or granulated sugar. The test substances were applied at 1 to 5 mg on the mid-point of the dorsal surface of the tongue using a metal spatula or a plastic applicator. After depositing the test substance on the tongue, the subject was instructed to keep the mouth closed and allow the fluids of the mouth to inter-mix with the test substance and to distribute it to the back of the mouth (oropharynx). The presence and duration of subjective sensations from the mouth was then noted.
In normal subjects, the effects of the D-Ala methyl and ethyl ester compounds falling within Formula (1) ((R)-2-[((1R,2S,5R)-2-isopropyl-5-methyl-cyclohexanecarbonyl)-amino]-propionic acid methyl or ethyl ester)) were examined. Three doses of 1, 2 and 4 mg per application were examined and compared to a similar dose of the L-Ala methyl or ester analog ((S)-2-[((1R,2S,5R)-2-isopropyl-5-methyl-cyclohexanecarbonyl)-amino]-propionic acid methyl or ethyl ester). At the 2 or 4 mg dose, all compounds produced pleasant and robust cooling sensations on the tongue, extending down to the back of throat, and lasted for about 30 minutes and longer. The onset effect was usually within 30 seconds of application.

cough = assay: Study 8: cough in cigar smokers, powder on the tongue; assay type: in vivo, human
Text: Two males, were inveterate cigar smokers consuming 3 to 5 cigars per day. They both had frequent bouts of dry, non-productive, hacking coughs. At night, there were episodes of insomnia characterized by difficulties in breathing, an oppressive pressure on the chest and throat, and subsequent awakening with sensations of choking. During the day, a frequent and persistent sensation was that of tickling, irritative feelings in the back of the throat that led to coughing.
In 20 trials, 10 trials per subject, two mg of 95%+pure powder of a D-Ala ethyl compound falling within Formula (1) (R)-2-[((1R,2S,5R)-2-isopropyl-5-methyl-cyclohexanecarbonyl)-amino]-propionic acid ethyl ester) was placed on the mid-portion of the tongue of these two subjects. Both subjects reported relief from the desire to cough within 1 minute after application. Sensations of robust coolness in the back of the throat was noted and lasted for about 30 minutes. Applications of similar amounts of powdered sugar were not effective, but the placebo could be clearly distinguished from the active compound because of the absence of cooling sensations.
After application of test substance, the absence of irritation and itching at the back of the throat (cough signals) lasted for about 4 to 5 hours and the individual was observed not to cough for 6 to 8 hours. […] This therapeutic effect occurred when the test substance no longer elicited cooling sensations in the oropharynx.

asthma cough = assay: Study 9: asthmatic cough, powder on the tongue; assay type: in vivo, human; settings: continued use
Text: A person with a documented 31-year history of asthma attacks volunteered to test one of the compounds falling within Formula (1). They were extremely sensitive to agents such as tobacco smoke, dust, pollen, odors, down/woolen materials, house cleansing products, pets, and sudden change of air temperature, and reacted with violent coughing, mucus secretions, wheezing, choking, and shortness of breath. At the time of this trial, they were taking these medications for their condition: theophylline, Allegra®, Advair®, Intal®, and Singulair®. In 5 trials, during a coughing spree, they placed one to two mg of 95%+ pure powder of a D-Ala ethyl ester falling within Formula (1) ((R)-2-[((1R,2S,5R)-2-isopropyl-5-methyl-cyclohexanecarbonyl)-amino]-propionic acid ethyl ester)) on the mid-portion of their tongue. They reported a soothing and cool sensation with a slight taste similar to Eucalyptus oil in their mouth and throat. Coughing stopped after 3 to 5 minutes and breathing was normal. […] In three trials when the compound was applied at night, they slept through the night without being awakened by cough. Their spouse remarked that, in over 30 years of marriage, this was the first time that they had seen an effective medication for their cough. […]

skin above the upper lip = assay: Cooling sensation on facial skin, ointment applied to skin above the upper lip; assay type: in vivo, human; design: key to refreshing cooling and absence of skin irritation or eye irritation (“perfect cool”): (*) denotes compounds with refreshing cooling and absence of skin irritation or eye irritation after facial skin or periorbital applications; a “perfect cool.”; settings: for Duration of Skin Cooling: 40 mM (1% wt/vol) ointment
tongue = settings: Watson et al., filter paper on tongue, 6 subjects; cited from earlier work
periorbital skin = assay: Irritancy near the eyes, ointment applied to periorbital skin; assay type: in vivo, human; settings: Table 1 summary
Text: The ointment is also applied to the periorbital skin (upper and lower eyelids and on skin adjacent to the lateral canthus) for tests of irritancy near the eyes, and the subject is asked if irritation is present or absent. The intensity of the eye sensation is not rated. For tests of irritancy near the eyes, the ointment was applied to the periorbital skin (upper and lower eyelids and on skin adjacent to the lateral canthus), and the subject asked if irritation is present or absent. The intensity of the eye sensation is not rated, but just noted as being present or absent.

SMILES: CCOC(=O)[C@@H](C)NC(=O)[C@@H]1C[C@H](C)CC[C@H]1C(C)C [D-Ala Et Ester, (R)-2-[((1R,2S,5R)-2-isopropyl-5-methyl-cyclohexanecarbonyl)-amino]-propionic acid ethyl ester]
- duration of cooling sensations on the tongue (oral cavity; dose of 1 to 2 mg, normal subjects): about 30 minutes
- time the desire to cough was removed (cough; after 4 or 6 applications within 2 days, continued smoking): at least 5 days
- duration of robust coolness in the back of the throat (cough; two mg powder on tongue): about 30 minutes
- time to relief from the desire to cough (cough; two mg powder on tongue, 20 trials in 2 subjects): ≤ 1 min
- recurrence of asthmatic coughing attacks (asthma cough): have not recurred with any severity for one month
- Duration of Skin Cooling (skin above the upper lip; skin above upper lip): 2.4 h
- Duration of Action On-Off (minutes): On (onset) (skin above the upper lip; 40 mM (~1% wt/vol) Aquaphor ointment, 40 to 70 mg, skin above upper lip, time to reach 2 units of coolness): 1 min
- Duration of Action On-Off (minutes): duration (offset minus onset) (skin above the upper lip; 40 mM Aquaphor ointment, skin above upper lip): 142 min
- Duration of Action On-Off (minutes): Off (offset) (skin above the upper lip; 40 mM Aquaphor ointment, skin above upper lip, time when coolness drops below 2 units): 143 min
- refreshing cooling and absence of skin irritation or eye irritation (“perfect cool”) (skin above the upper lip; after facial skin or periorbital applications): D-Ala Et Ester (*)

SMILES: CC(C)[C@@H]1CC[C@@H](C)C[C@H]1O [(−)-menthol, 1R-(1α-2β-5α)-5-methyl-2-(1-methylethyl)cyclohexanol, reference compound]
- average threshold for cooling on the tongue (tongue): 0.25 µg
- Cooling on tongue (oral cavity; Table 1 summary): yes
- Eye Irritancy (periorbital skin): yes
- Duration of Skin Cooling (skin above the upper lip; skin above upper lip): 0.3 h
- Acts for >1 hour at 40 mM (skin above the upper lip; Table 1 summary): no
- Cooling on skin of face (skin above the upper lip; Table 1 summary): yes
- “perfect” cooling experience (skin above the upper lip; Table 1 summary): no
